Results as given in ChEMBL document CHEMBL5543082, “In vitro and in vivo anti-pigmentation effects of 2-mercaptobenzimidazoles as nanomolar tyrosinase inhibitors on mammalian cells and zebrafish embryos: Preparation of pigment-free zebrafish embryos” (Eur J Med Chem, 2024).
Activity calls are given as the source filed them. No cut-off for these calls is given here.

Assays:
[1] = tested on: B16-F10; assay: Cytotoxicity against mouse B16-F10 cells at <= 20 uM after 72 hrs by EZ-Cytox solution based microplate reader assay; assay type: toxicity, cell-based; details: b16-f10, 72 h
[2] = tested on: HaCaT; assay: Cytotoxicity against human HaCaT cells at <= 20 uM after 24 hrs by EZ-Cytox solution based microplate reader assay; assay type: toxicity, cell-based
[3] = Antioxidant activity assessed as reduction in FeSO4 induced hydroxyl radical production at 40 uM; assay type: functional
[4] = biological target: T1, Mushroom tyrosinase (Agaricus bisporus, UniProt O42713+Q00024+C7FF04+C7FF05); assay: Inhibition of mushroom tyrosinase diphenolase activity using L-dopa as substrate incubated for 0.5 hrs; assay type: protein assay
[5] = biological target: T1, Mushroom tyrosinase; assay: Inhibition of mushroom tyrosinase monophenolase activity using L-tyrosine as substrate incubated for 0.5 hrs; assay type: protein assay
[6] = tested on: Danio rerio; assay: Depigmentation activity in zebrafish embryos administered at 21 hpf and measured after 69 hpf; assay type: functional, organism-based; details: dose 0.01-0.4 mM, time […]
[7] = Antioxidant activity assessed as reduction in H2O2 induced hydroxyl radical production at 40 uM; assay type: functional
[8] = tested on: B16-F10; assay: Inhibition of melanin production in mouse B16-F10 cells preincubated for 1 hr followed by alpha-MSH and IBMX addition and measured after 72 hrs; assay type: functional, cell-based; details: dose 5-20 µM, time 73.0 hrs
[9] = biological target: T2, Tyrosinase (Mus musculus) (UniProt P11344); assay: Inhibition of tyrosinase activity in mouse B16-F10 cells preincubated for 1 hr followed by alpha-MSH and IBMX addition and measured after 72 hrs; assay type: cell-based; details: time 73.0 hrs
T2 sequence (whole entry): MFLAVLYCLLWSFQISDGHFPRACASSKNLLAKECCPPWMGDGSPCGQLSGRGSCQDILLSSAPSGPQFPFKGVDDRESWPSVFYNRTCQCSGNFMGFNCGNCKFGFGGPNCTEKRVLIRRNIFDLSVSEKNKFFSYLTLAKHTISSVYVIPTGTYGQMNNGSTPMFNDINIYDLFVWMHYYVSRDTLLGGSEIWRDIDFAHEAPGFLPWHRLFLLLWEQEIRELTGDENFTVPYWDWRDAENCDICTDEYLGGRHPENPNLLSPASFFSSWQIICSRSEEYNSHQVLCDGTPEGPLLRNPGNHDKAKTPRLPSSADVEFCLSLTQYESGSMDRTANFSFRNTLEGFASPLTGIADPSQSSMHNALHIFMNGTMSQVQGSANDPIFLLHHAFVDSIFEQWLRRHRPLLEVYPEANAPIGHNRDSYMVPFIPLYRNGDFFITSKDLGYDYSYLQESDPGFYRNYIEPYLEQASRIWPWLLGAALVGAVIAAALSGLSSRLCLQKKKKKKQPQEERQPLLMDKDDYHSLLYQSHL

[10] = Antioxidant activity assessed as peroxynitrite scavenging activity by measuring rhodamine 123 fluorescence intensity at 50 uM in presence of SIN-1; assay type: functional

Row | IC50 [4] | IC50 [5] | inhibition [9] | Structure (SMILES) | Activity [1] | Activity [2] | Activity [3] | Activity [6] | Activity [7] | inhibition [8] | Activity [10]
1 | – | – | – | Cc1ccc2[nH]c(S)nc2c1 | Non-Toxic | Non-Toxic | – | – | – | – | –
2 | 0.74 µM | 5.78 µM | – | Cc1cccc2[nH]c(=S)[nH]c12 | – | – | inactive | Dose-Dependent Effect | inactive | – | –
3 | – | – | – | O=[N+]([O-])c1ccc2[nH]c(S)nc2c1 | – | – | inactive | Dose-Dependent Effect | inactive | – | –
4 | – | – | Dose-Dependent Effect | Cc1ccc2[nH]c(=S)[nH]c2c1 | – | – | inactive | Dose-Dependent Effect | inactive | Dose-Dependent Effect | –
5 | – | – | – | CC(C)(S)[C@@H](N)C(=O)O | – | – | – | – | – | – | Active
6 | – | – | – | Cc1c(C)c2c(c(C)c1O)CCC(C)(C(=O)O)O2 (centres undefined) | – | – | Active | – | Active | – | Active
7 | – | – | – | O=C(c1ccccc1)c1ccc2[nH]c(=S)[nH]c2c1 | Non-Toxic | Non-Toxic | – | – | – | – | –
8 | – | – | – | COc1ccc2[nH]c(S)nc2c1 | – | – | inactive | Dose-Dependent Effect | inactive | – | –
9 | – | – | Dose-Dependent Effect | Sc1nc2cc(Cl)ccc2[nH]1 | Non-Toxic | Non-Toxic | inactive | Dose-Dependent Effect | inactive | Dose-Dependent Effect | Active
10 | 0.02 µM | 0.1 µM | Dose-Dependent Effect | O=C(c1ccccc1)c1ccc2[nH]c(S)nc2c1 | – | – | inactive | Dose-Dependent Effect | inactive | Dose-Dependent Effect | Active
11 | – | – | – | Sc1nc2ccccc2[nH]1 | – | – | inactive | Dose-Dependent Effect | inactive | – | –
12 | 0.04 µM | 0.11 µM | – | N#Cc1ccc2[nH]c(S)nc2c1 | – | – | inactive | Dose-Dependent Effect | inactive | – | Active
13 | – | – | – | Fc1ccc2[nH]c(S)nc2c1 | – | – | inactive | Dose-Dependent Effect | inactive | – | –
14 | – | – | Dose-Dependent Effect | Cc1cc2nc(S)[nH]c2cc1C | Non-Toxic | Non-Toxic | inactive | Dose-Dependent Effect | inactive | Dose-Dependent Effect | –
